The values below are quoted from earlier work in publication PMC7529705 (Biochemistry, 2020).

Entries after “also recorded” stand apart in the source; their conditions may differ. Where no end group is shown, it is not given here. me2a = asymmetric dimethylation (Arg)

The series relates to WDR5. Particulars: previously reported.

“H3R2me2a: Histone H3 1–7aa peptide, asymmetrically dimethylated at Arg2 (AR(me2a)TKQTA; UniProt P68431 2-8, looked up, fragment)”: the “Interaction with WDR5” value is “not to interact; also recorded: does not interact”.
